{
  "source": "patent US11192888B2",
  "about": "“Antibacterial compounds” (priority 2017, dated 2021)",
  "key": {"[1]": {"tested_on": "C. difficile ATCC 43255 (aka VPI 10463; ribotype 087)", "test": "Mouse model of C. difficile-associated disease", "assay_type": "in vivo, C57BL/6 mice"}, "[2]": {"tested_on": "Citrobacter koseri Clinical"}, "[3]": {"tested_on": "Enterococcus faecium NCTC 12204"}, "[4]": {"tested_on": "Clostridium ramosum DSM 1402"}},
  "note": "*1 amine or outer side, *2 acyl side, *3 side chain or, on linkers, in order; H or OH if unused. Where a SMILES comes first, the peptide text is derived from it. [ ]: non-standard residue; d: D form. dAla(ψthiazole) = C[C@@H](N[*:1])c1nc(C(=O)[*:2])cs1; Trp(4-Br) = N[C@@H](Cc1c[nH]c2cccc(Br)c12)C(=O)O; Dhb = C/C=C(\\N)C(=O)O; Sar = CNCC(=O)O",
  "data": [
    {"smiles": "C/C=C1\\NC(=O)[C@@H](C)NC(=O)CNC(=O)[C@H](Cc2c[nH]c3cccc(Br)c23)NC(=O)[C@H](Cc2c[nH]c3ccccc23)NC(=O)c2csc(n2)[C@@H](C)NC(=O)CN(C)C1=O", "note": "[Compound 10, Cyclo[D-Ala-Thz-Trp-Trp(4-Br)-Gly-D-Ala-Dhb-Sar]] (cyclo([Dhb][Sar][dAla(ψthiazole)]W[Trp(4-Br)]G[dA]))", "values": [
      {"measurement": "survival to the end of the study at day-21 post-infection", "setting": "[1]; 1 mg/kg", "value": 80, "unit": "%"},
      {"measurement": "Mean survival", "setting": "[1]; 1 mg/kg oral BD for 5 days", "value": 504.00, "unit": "h"},
      {"measurement": "survival to the end of the study at day-21 post-infection", "setting": "[1]; 2.5 mg/kg", "value": 70, "unit": "%"},
      {"measurement": "Mean survival", "setting": "[1]; 2.5 mg/kg oral BD for 5 days", "value": 504.00, "unit": "h"},
      {"measurement": "reduction in C. difficile spore burden in the caecum vs vehicle controls", "setting": "[1]; 5 mg/kg", "value": 1.73, "unit": "Log10 spore/mL"},
      {"measurement": "reduction in C. difficile spore burden in the colon vs vehicle controls", "setting": "[1]; 5 mg/kg", "value": 1.11, "unit": "Log10 spore/mL"},
      {"measurement": "survival to the end of the study at day-21 post-infection", "setting": "[1]; 5 mg/kg", "value": 90, "unit": "%"},
      {"measurement": "Mean survival", "setting": "[1]; 5 mg/kg oral BD for 5 days", "value": 504.00, "unit": "h"},
      {"measurement": "MIC", "setting": "[2]", "value": ">64", "unit": "µg/mL"},
      {"measurement": "MIC", "setting": "[3]", "value": ">64", "unit": "µg/mL"},
      {"measurement": "MIC", "setting": "[4]", "value": ">64", "unit": "µg/mL"}
    ]}
  ]
}
